# In publication PMC10753699, “Synthesis of Some New 1,3,4-Oxadiazole Derivatives and Evaluation of Their Anticancer Activity” (ACS Omega, 2023):
# Legend:
# MMP-9 enzyme = target: T1, MMP-9 enzyme (Homo sapiens, UniProt P14780); assay: MMP-9 colorimetric inhibition assay; type: biochemical; settings: for inhibition at 100 µg/mL: at 100 μg/mL
# T1 construct: purchased EnzoLife Sciences Inc. (Farmingdale, New York, NY, USA)
# Excerpt: As described in our previous study,[36] the method was applied in exactly the same manner. EnzoLife Sciences Inc. provided MMP-9 colorimetric kits (Farmingdale, New York, NY, USA). The MMP Colorimetric Drug Discovery Kits are a comprehensive test technique that uses a thiopeptide (Ac-PLG-[2-mercapto-4-methyl-pentanoyl]-LG-OC2H5) as a chromogenic substrate to screen MMP inhibitors. Using a microplate reader (BioTek, PowerWave, Gen5 software, Winooski, VT, USA) at room temperature, the UV absorbance was measured at 412 nm. NNGH was employed as an inhibitor of control.
# C6 rat glioma cell line = assay: MTT cell viability / cytotoxicity on C6; type: cell-based; settings: mean ± S.D. of three determinations
# Method: (§1) The MTT (3-(4,5-dimethylthiazol-2-yl)-2,5-diphenyltetrazolium bromide) method was applicated to assess the cell viability of L929, C6 and A549 cell lines against the tested compounds according to the reported data.[51] In 96-well plates with a flat bottom, the A549, C6, and L929 cells were cultivated at a density of 5 × 10^3 cells per well. […] After addition, they were incubated for a full day in culture wells. Following the incubation period, 20 μL of phosphate-buffered saline (PBS) (Gibco, Paisley, UK) containing 5 mg/mL MTT powder (Sigma-Aldrich, St. Louis, MO, USA) was added to each well. The medium was taken out of the plate and replaced with 100 μL of DMSO in each well to dissolve the dye. This was left for 2 to 4 h under the same conditions and then left for 10 min. At the conclusion of the procedure, purple formazan, the reduction product of the MTT agent, was formed by the mitochondrial dehydrogenase enzyme of intact cells. A microtiter plate reader (BioTek Plate Reader, Winooski, VT, USA) was used to measure the cells at 540 nm. Cell viability was measured as a percentage and contrasted with that of the cells in the control group. Half-maximal inhibitory concentration 50 (IC50) values were determined by repeating each concentration in three wells and identifying the drug concentrations that decreased the absorbance to 50% of control values. The medium control served as the basis for calculating the percentage of viable cells.
# [1] = test system: A549 human lung cancer cell line; assay: MTT cell viability / cytotoxicity on A549; type: cell-based; settings: for IC50: MTT, mean ± S.D. of three determinations; for inhibition of A549 at the lowest concentration tested: A549, MTT; for SI (L929/A549): selectivity index = IC50 on normal cells/IC50 on cancer cells
# Method: (§2) In 75 cm^2 sterile plastic tissue culture flasks, the human lung adenocarcinoma A549 and the mouse fibroblast L929 cell lines were cultured in 90% RPMI (Sigma, Deisenhofen, Germany) media supplemented with 10% (v/v) FBS (Gibco, Paisley, UK) and adherent monolayers of penicillin/streptomycin (100 units/mL) from Gibco, Paisley, UK. These cells were cultured at 37 °C in an environment that was humidified and contained 5% CO2.
# as §1
# [2] = test system: L929 murine fibroblast cell line; assay: MTT cell viability / cytotoxicity on L929 (healthy cells); type: cell-based, mouse; settings: mean ± S.D. of three determinations
# Method: as §2, §1
# [3] = Homo sapiens, A549, A549 cell line
# [4] = Mus musculus, L929, L929 healthy cell line
# T1 sequence (P14780 107-444 limits assumed): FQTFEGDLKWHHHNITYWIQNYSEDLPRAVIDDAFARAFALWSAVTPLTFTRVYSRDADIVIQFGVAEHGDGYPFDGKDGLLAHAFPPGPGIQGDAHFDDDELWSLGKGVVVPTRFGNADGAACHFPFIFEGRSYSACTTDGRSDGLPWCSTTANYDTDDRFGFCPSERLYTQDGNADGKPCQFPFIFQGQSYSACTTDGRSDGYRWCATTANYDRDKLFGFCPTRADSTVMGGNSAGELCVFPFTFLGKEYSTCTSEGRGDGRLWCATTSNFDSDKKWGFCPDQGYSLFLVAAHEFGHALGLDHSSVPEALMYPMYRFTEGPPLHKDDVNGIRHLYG
inhibition at 100 µg/mL (MMP-9 enzyme) [%],melting point [°C],IC50 (MMP-9 enzyme) [µM],SMILES,IC50 (C6 rat glioma cell line) [µM],IC50 ([1]; A549 cell line) [µM],"IC50 [1, 3] [µM]",IC50 ([2]; L929 healthy cell line) [µM],"IC50 [2, 4] [µM]",inhibition of A549 at the lowest concentration tested [1],SI (L929/A549) [1]
27.6 ± 2.01,,,"CC(=O)Nc1ccccc1OCc1nnc(SCC(=O)Nc2nc3ccc([N+](=O)[O-])cc3s2)o1 [Compound 4d, 2-[(5-((2-Acetamidophenoxy)methyl)-1,3,4-oxadiazol-2-yl)thio]-N-(6-nitrobenzothiazol-2-yl)acetamide]",28.3 ± 12.1,> 1000,> 1030,< 7.8,< 7.96,,
> 50,210 to 215,22 ± 1.41,"CC(=O)Nc1ccccc1OCc1nnc(SCC(=O)Nc2ccc([N+](=O)[O-])cc2)o1 [Compound 4j, 2-[(5-((2-Acetamidophenoxy)methyl)-1,3,4-oxadiazol-2-yl)thio]-N-(4-nitrophenyl)acetamide]",> 1000,,< 8.8,< 8.8,< 7.96,greater than 50%,<1
> 75,208 to 212,7.1 ± 1.27,"CCOc1ccc2nc(NC(=O)CSc3nnc(COc4ccccc4NC(C)=O)o3)sc2c1 [Compound 4g, 2-[(5-((2-Acetamidophenoxy)methyl)-1,3,4-oxadiazol-2-yl)thio]-N-(6-ethoxybenzothiazol-2-yl)acetamide]",8.16 ± 0.24,,< 7.82,< 7.82,< 7.96,greater than 50%,<1
49.5 ± 1.86,,,"CC(=O)Nc1ccccc1OCc1nnc(SCC(=O)Nc2nc3ccc(Cl)cc3s2)o1 [Compound 4b, 2-[(5-((2-Acetamidophenoxy)methyl)-1,3,4-oxadiazol-2-yl)thio]-N-(6-chlorobenzothiazol-2-yl)acetamide]",19.9 ± 6.33,,24.5 ± 5.76,,< 7.96,,
> 50,213 to 216,19.5 ± 3.18,"CC(=O)Nc1ccccc1OCc1nnc(SCC(=O)Nc2nc3ccc(C)cc3s2)o1 [Compound 4e, 2-[(5-((2-Acetamidophenoxy)methyl)-1,3,4-oxadiazol-2-yl)thio]-N-(6-methylbenzothiazol-2-yl)acetamide]",458 ± 28.2,,43 ± 2.79,,29.9 ± 3.01,,0.69
